Data taken from article PMC9374667 (Communications Biology, 2022).
“And” between values parts separate entries of the source, which are not always exact repeats. Identical values can stand only once.

Experiments:
db/db mice [1] = experiment: Spontaneous motor activity (CLAMS, infrared beam breaks); type: in vivo; settings: BBR 150mg/kg, individual mice 1-6
Protocol: (§1) At week 5 of treatment, basal metabolic parameters of mice were measured using the Comprehensive Lab Animal Monitoring System (CLAMS, Columbus Instruments, Columbus, OH). […] The number of times the infrared beams were broken along the X- or Y-axis was used to measure the dynamic activity of mice. The respiratory exchange rate (RER) was calculated using classical Lusk theory and equations RER = VCO2/VO2.

db/db mice [2] = experiment: Indirect calorimetry (CLAMS): VO2, VCO2, RER; type: in vivo; parameters: Figure 3g (VCO2), individual mice 1-6: unit not given here; settings: for Figure 3g (VCO2), individual mice 1-6 / Figure 3e (VO2), individual mice 1-6: BBR 150mg/kg; for Figure 3e (VO2), individual mice 1-6: in mL/kg/h (unit assumed); for Average RER (VCO2/VO2) / Average VCO2 / Average VO2: 150 mg/kg for 5 weeks, individual mice, 150 mg/kg
Protocol: as §1

## COc1ccc2cc3[n+](cc2c1OC)CCc1cc2c(cc1-3)OCO2 [BBR, Berberine chloride dihydrate]
db/db mice [1]; TIME 09:00:00
  Spontaneous motor activity (Figure 3j): 453.5 and 1366 and 855.5 and 150 and 210.5 and 798
db/db mice [1]; TIME 10:00:00
  Spontaneous motor activity (Figure 3j): 578.5 and 328 and 167.5 and 335.5 and 115 and 382
db/db mice [1]; TIME 11:00:00
  Spontaneous motor activity (Figure 3j): 144.5 and 288.5 and 281.5 and 646 and 886.5 and 449
db/db mice [1]; TIME 12:00:00
  Spontaneous motor activity (Figure 3j): 559 and 373.5 and 450.5 and 378.5 and 424.5 and 29.5
db/db mice [1]; TIME 13:00:00
  Spontaneous motor activity (Figure 3j): 620.5 and 553.5 and 835.5 and 411 and 498 and 330
db/db mice [1]; TIME 14:00:00
  Spontaneous motor activity (Figure 3j): 823.5 and 171 and 498 and 447 and 397.5 and 455
db/db mice [1]; TIME 15:00:00
  Spontaneous motor activity (Figure 3j): 870 and 677.5 and 611.5 and 326 and 849.5 and 246
db/db mice [1]; TIME 16:00:00
  Spontaneous motor activity (Figure 3j): 482.5 and 647.5 and 365.5 and 416.5 and 803.5 and 105
db/db mice [1]; TIME 17:00:00
  Spontaneous motor activity (Figure 3j): 814 and 1029.5 and 535.5 and 427.5 and 177.5 and 328
db/db mice [1]; TIME 18:00:00
  Spontaneous motor activity (Figure 3j): 694 and 351 and 1055.5 and 323.5 and 1331.5 and 362
db/db mice [1]; TIME 19:00:00
  Spontaneous motor activity (Figure 3j): 242 and 551.5 and 453.5 and 327.5 and 706.5 and 367
db/db mice [1]; TIME 20:00:00
  Spontaneous motor activity (Figure 3j): 34.5 and 1152.5 and 475 and 298.5 and 432.5 and 477
db/db mice [1]; TIME 21:00:00
  Spontaneous motor activity (Figure 3j): 863 and 737 and 845.5 and 99.5 and 506 and 314
db/db mice [1]; TIME 22:00:00
  Spontaneous motor activity (Figure 3j): 320.5 and 467 and 701 and 142 and 156 and 371.5
db/db mice [1]; TIME 23:00:00
  Spontaneous motor activity (Figure 3j): 428.5 and 928 and 390.5 and 869 and 897 and 315.5
db/db mice [1]; TIME 1900-01-01 01:00:00
  Spontaneous motor activity (Figure 3j): 479.5 and 494 and 426 and 899
db/db mice [1]; TIME 1900-01-01
  Spontaneous motor activity (Figure 3j): 542.5 and 374 and 305.5 and 238 and 658 and 526
db/db mice [2]; TIME 09:00:00
  Figure 3g (VCO2), individual mice 1-6: 2187 and 1798.5 and 1382 and 1550.5 and 1282 and 1729
  Figure 3e (VO2), individual mice 1-6: 2463.5 and 1992.5 and 1618.5 and 1830.5 and 1604 and 1996.5
db/db mice [2]; TIME 10:00:00
  Figure 3g (VCO2), individual mice 1-6: 2025.5 and 1306.5 and 1293 and 1507.5 and 1152.5 and 1351.5
  Figure 3e (VO2), individual mice 1-6: 2239.5 and 1396.5 and 1525.5 and 1818.5 and 1443 and 1558.5
db/db mice [2]; TIME 11:00:00
  Figure 3g (VCO2), individual mice 1-6: 1508.5 and 1801 and 1600.5 and 1450.5 and 1810.5 and 2131.5
  Figure 3e (VO2), individual mice 1-6: 1686.5 and 2034 and 1941 and 1727 and 2185.5 and 2486.5
db/db mice [2]; TIME 12:00:00
  Figure 3g (VCO2), individual mice 1-6: 1560 and 1682.5 and 1287 and 1655.5 and 1234 and 1351
  Figure 3e (VO2), individual mice 1-6: 1799.5 and 1905 and 1604.5 and 1986.5 and 1472.5 and 1528
db/db mice [2]; TIME 13:00:00
  Figure 3g (VCO2), individual mice 1-6: 1425.5 and 1753 and 2069 and 1636 and 1111.5 and 1447.5
  Figure 3e (VO2), individual mice 1-6: 1585 and 1943.5 and 2523.5 and 1919 and 1415 and 1703
db/db mice [2]; TIME 14:00:00
  Figure 3g (VCO2), individual mice 1-6: 1628.5 and 1269.5 and 1997.5 and 1334 and 1382 and 1265.5
  Figure 3e (VO2), individual mice 1-6: 1785 and 1394 and 2318.5 and 1559 and 1696.5 and 1512.5
db/db mice [2]; TIME 15:00:00
  Figure 3g (VCO2), individual mice 1-6: 1579.5 and 1285 and 1642.5 and 1147.5 and 2064.5 and 1675
  Figure 3e (VO2), individual mice 1-6: 1826 and 1499.5 and 1948.5 and 1433.5 and 2445.5 and 1943
db/db mice [2]; TIME 16:00:00
  Figure 3g (VCO2), individual mice 1-6: 1579 and 1741 and 1899.5 and 1326 and 1630.5 and 1658.5
  Figure 3e (VO2), individual mice 1-6: 1816.5 and 2044.5 and 2249 and 1622.5 and 1845.5 and 1914
db/db mice [2]; TIME 17:00:00
  Figure 3g (VCO2), individual mice 1-6: 1290.5 and 1905.5 and 1610 and 1666.5 and 1315 and 1412.5
  Figure 3e (VO2), individual mice 1-6: 1507 and 2598 and 1769 and 2019 and 1551.5 and 1596.5
db/db mice [2]; TIME 18:00:00
  Figure 3g (VCO2), individual mice 1-6: 1292.5 and 1365.5 and 1937 and 1461.5 and 1206 and 1444
  Figure 3e (VO2), individual mice 1-6: 1496 and 1510 and 2285 and 1793 and 1482.5 and 1701
db/db mice [2]; TIME 19:00:00
  Figure 3g (VCO2), individual mice 1-6: 1404 and 1310 and 1770.5 and 1481 and 1876 and 2094
  Figure 3e (VO2), individual mice 1-6: 1643.5 and 1465 and 2034 and 1838.5 and 2235 and 2481.5
db/db mice [2]; TIME 20:00:00
  Figure 3g (VCO2), individual mice 1-6: 1181 and 2034.5 and 1933 and 1597 and 1575 and 1493.5
  Figure 3e (VO2), individual mice 1-6: 1393.5 and 2338.5 and 2268.5 and 1885.5 and 1848 and 1679
db/db mice [2]; TIME 21:00:00
  Figure 3g (VCO2), individual mice 1-6: 1529.5 and 1566 and 1830 and 1676.5 and 1825.5 and 1630.5
  Figure 3e (VO2), individual mice 1-6: 1863.5 and 1748.5 and 2189 and 2027 and 2201.5 and 1886
db/db mice [2]; TIME 22:00:00
  Figure 3g (VCO2), individual mice 1-6: 1627 and 2225 and 1746.5 and 1760.5 and 1520.5 and 2058.5
  Figure 3e (VO2), individual mice 1-6: 1913.5 and 2540.5 and 2028.5 and 2082.5 and 1881 and 2440
db/db mice [2]; TIME 23:00:00
  Figure 3g (VCO2), individual mice 1-6: 1717.5 and 1505 and 2209 and 1848.5 and 1914.5 and 1764
  Figure 3e (VO2), individual mice 1-6: 1949 and 1704 and 2610 and 2181 and 2319.5 and 2010
db/db mice [2]; TIME 1900-01-01
  Figure 3g (VCO2), individual mice 1-6: 2124.5 and 2214 and 2120 and 1937 and 2080.5 and 2184
  Figure 3e (VO2), individual mice 1-6: 2407.5 and 2513.5 and 2566 and 2292.5 and 2527.5 and 2541
db/db mice [2]; TIME 1900-01-01 01:00:00
  Figure 3g (VCO2), individual mice 1-6: 2199 and 2168 and 2133.5 and 2137.5
  Figure 3e (VO2), individual mice 1-6: 2537.5 and 2453.5 and 2566.5 and 2667.5
db/db mice [2]; db/db mice, day (light)
  Average RER (VCO2/VO2): 0.8616 and 0.8798 and 0.8875 and 0.8398 and 0.8298 and 0.8335
  Average VCO2: 27.0427 mL/min/kg and 26.0915 mL/min/kg and 26.8287 mL/min/kg and 27.4625 mL/min/kg and 24.4077 mL/min/kg and 25.0565 mL/min/kg
  Average VO2: 31.4158 mL/min/kg and 29.6362 mL/min/kg and 30.277 mL/min/kg and 32.69 mL/min/kg and 29.3548 mL/min/kg and 30.0223 mL/min/kg
db/db mice [2]; db/db mice, night (dark)
  Average RER (VCO2/VO2): 0.8596 and 0.865 and 0.8782 and 0.8452 and 0.8334 and 0.8299
  Average VCO2: 30.8835 mL/min/kg and 33.2053 mL/min/kg and 32.3175 mL/min/kg and 33.4173 mL/min/kg and 30.4887 mL/min/kg and 29.875 mL/min/kg
  Average VO2: 35.933 mL/min/kg and 38.3562 mL/min/kg and 36.82 mL/min/kg and 39.5103 mL/min/kg and 36.573 mL/min/kg and 36.013 mL/min/kg
db/db mice [2]; db/db mice, light-dark cycle, 5 weeks of treatment, vs vehicle
  Oxygen consumption (VO2) and carbon dioxide elimination (VCO2) levels: significantly higher than those in the vehicle-treated group
